Results published in ChEMBL document CHEMBL4130359, “Indazole-based ligands for estrogen-related receptor α as potential anti-diabetic agents” (Eur J Med Chem, 2017).
Calls of active or inactive are those of the source. No cut-off for these calls is given here.

Assays:
Rattus norvegicus [1] = assay: Toxicity in […] model assessed as serum BUN level at 3 mg/kg, po qd for 31 days measured on day 32 (reference value: 28.3 +/- […]); type: organism-based; conditions: in vivo, 744 h
Rattus norvegicus [2] = assay: Antidiabetic activity in Zucker rat sub-chronic fa/fa prediabetic model assessed as blood insulin AUC (0 to 120 min) at 3 mg/kg, po qd for 31 days measured on day 29 post dose (reference value: 1503 +/- 160 ug.min/L); type: functional, organism-based; parameters: dose 3 mg/kg, time < 2 hr
Rattus norvegicus [3] = assay: Effect on PGAM2 gene expression in epididymal white adipose tissue of Zucker rat sub-chronic fa/fa prediabetic model at 10 mg/kg, po qd for 15 days by microarray analysis relative to control; type: functional
[4] = Half life in Sprague-Dawley rat at 2 mg/kg, iv by LC-MS analysis; type: ADME, organism-based; conditions: in vivo
Rattus norvegicus [5] = assay: Toxicity in Zucker rat sub-chronic fa/fa prediabetic model assessed as serum BUN level at 3 mg/kg, po qd for 31 days measured on day 32 (reference value: 28.3 +/- […]); type: organism-based; conditions: in vivo, 744 h
[6] = AUC (0 to 24 hrs) in CD-1 mouse at 20 mg/kg administered via oral gavage by LC-MS analysis; type: ADME, organism-based; parameters: dose 20 mg/kg, time < 24 hr, route oral; conditions: in vivo
Rattus norvegicus [7] = assay: Toxicity in […] chronic ob/ob model assessed as epididymal white adipose tissue weight at 50 mg/kg, po qd for 31 days measured on day 32 (reference value: 3.92 +/- 0.14 g); type: organism-based; conditions: in vivo, 744 h
Rattus norvegicus [8] = assay: Toxicity in […] chronic ob/ob model assessed as serum triglyceride level at 50 mg/kg, po qd for 31 days measured on day 32 (reference value: 329 +/- 36 mg/dl); type: organism-based; conditions: in vivo, 744 h
[9] = molecular target: Sodium channel protein type 2 subunit alpha (Homo sapiens) (UniProt Q99250); assay: Activity at human Nav1.2 expressed in CHOK1 cells assessed as effect on channel current up to 10 uM by patch clamp method; type: cell-based
Rattus norvegicus [10] = type: functional, Zucker
Rattus norvegicus [11] = assay: Toxicity in […] chronic ob/ob model assessed as food intake at 50 mg/kg, po qd for 28 days measured on day 1 to 28 during compound dosing (reference value: 170.6 +/- 3 g); type: organism-based; conditions: in vivo, 672 h
Rattus norvegicus [12] = assay: Effect on ECHS1 gene expression in epididymal white adipose tissue of Zucker rat sub-chronic fa/fa prediabetic model at 10 mg/kg, po qd for 15 days by microarray analysis relative to control; type: functional
Rattus norvegicus [13] = assay: Effect on EIF2B3 gene expression in epididymal white adipose tissue of Zucker rat sub-chronic fa/fa prediabetic model at 10 mg/kg, po qd for 15 days by microarray analysis relative to control; type: functional
Rattus norvegicus [14] = assay: Effect on ACOX1 gene expression in epididymal white adipose tissue of Zucker rat sub-chronic fa/fa prediabetic model at 10 mg/kg, po qd for 15 days by microarray analysis relative to control; type: functional
Rattus norvegicus [15] = assay: Toxicity in Zucker rat sub-chronic fa/fa prediabetic model assessed as heart weight at 10 mg/kg, po qd for 31 days measured on day 32 (reference value: 1.19 +/- 0.04 g); type: organism-based; conditions: in vivo, 744 h
[16] = Cmax in Zucker rat sub-chronic fa/fa prediabetic model at 50 mg/kg, po qd for 26 days measured on day 26 post last dose; type: ADME, organism-based; parameters: dose 50 mg/kg, route oral; conditions: in vivo
Rattus norvegicus [17] = assay: Effect on IKBKB gene expression in epididymal white adipose tissue of Zucker rat sub-chronic fa/fa prediabetic model at 10 mg/kg, po qd for 15 days by microarray analysis relative to control; type: functional
Rattus norvegicus [18] = assay: Toxicity in Zucker rat sub-chronic fa/fa prediabetic model assessed as triglyceride level per gram liver at 3 mg/kg, po qd for 31 days measured on day 32 (reference value: 163.4 +/- 8.3 mg); type: organism-based; conditions: in vivo, 744 h
[19] = Terminal half life in Sprague-Dawley rat at 10 mg/kg administered via oral gavage by LC-MS analysis; type: ADME, organism-based; conditions: in vivo, read-out: beta t1/2 (converted)
[20] = molecular target: Oxysterols receptor LXR-beta (Homo sapiens, UniProt P55055); assay: Agonist activity at recombinant GST-tagged human LXRbeta LBD assessed as fluorescein-labeled coactivator peptide recruitment preincubated with enzyme followed by coactivator addition by LanthaScreen TR-FRET assay
Rattus norvegicus [21] = assay: Toxicity in […] chronic ob/ob model assessed as food intake at 10 mg/kg, po qd for 28 days measured on day 1 to 28 during compound dosing (reference value: 170.6 +/- 3 g); type: organism-based; conditions: in vivo, 672 h
Rattus norvegicus [22] = assay: Effect on ADRA2C gene expression in epididymal white adipose tissue of Zucker rat sub-chronic fa/fa prediabetic model at 10 mg/kg, po qd for 15 days by microarray analysis relative to control; type: functional
Rattus norvegicus [23] = assay: Effect on HLA-DRA gene expression in epididymal white adipose tissue of Zucker rat sub-chronic fa/fa prediabetic model at 10 mg/kg, po qd for 15 days by microarray analysis relative to control; type: functional
Rattus norvegicus [24] = assay: Effect on NFATC4 gene expression in epididymal white adipose tissue of Zucker rat sub-chronic fa/fa prediabetic model at 10 mg/kg, po qd for 15 days by microarray analysis relative to control; type: functional
Rattus norvegicus [25] = assay: Antidiabetic activity in po dosed Zucker rat sub-chronic fa/fa prediabetic model assessed as reduction in blood glucose AUC (0 to 120 min) once daily for 31 days measured on day 29 post dose by OGTT; type: functional, organism-based
[26] = molecular target: Peroxisome proliferator-activated receptor gamma (Homo sapiens, UniProt P37231); assay: Inhibition of fluormone PPARgamma Green binding to recombinant N-terminal GST-tagged human PPARgamma LBD by fluorescence polarization assay
Rattus norvegicus [27] = assay: Toxicity in Zucker rat sub-chronic fa/fa prediabetic model assessed as change in body weight at 3 mg/kg, po qd for 29 days measured on day 1 to 29 during compound dosing (reference value: 140 +/- 7 g); type: organism-based; conditions: in vivo, 696 h
Rattus norvegicus [28] = assay: Toxicity in […] model assessed as serum cholesterol level at 3 mg/kg, po qd for 31 days measured on day 32 (reference value: 195 +/- 5.5 mg/dl); type: organism-based; conditions: in vivo, 744 h
Rattus norvegicus [29] = assay: Antidiabetic activity in po dosed Zucker rat chronic ob/ob model assessed as reduction in blood glucose AUC (0 to 120 min) administered once daily for 31 days measured on day 28 post dose by OGTT; type: functional, organism-based
[30] = Terminal half life in CD-1 mouse at 20 mg/kg administered via oral gavage by LC-MS analysis; type: ADME, organism-based; conditions: in vivo, read-out: beta t1/2 (converted)
Rattus norvegicus [31] = assay: Toxicity in Zucker rat sub-chronic fa/fa prediabetic model assessed as body weight at 50 mg/kg, po qd for 29 days measured on day 29 post last dose (reference value: 533 +/- 10 g); type: organism-based; conditions: in vivo, 696 h
Rattus norvegicus [32] = assay: Toxicity in […] chronic ob/ob model assessed as change in body weight at 50 mg/kg, po qd for 28 days measured on day 1 to 28 during compound dosing (reference value: 9.9 +/- 1.27 g); type: organism-based; conditions: in vivo, 672 h
Rattus norvegicus [33] = assay: Effect on COX4I1 gene expression in epididymal white adipose tissue of Zucker rat sub-chronic fa/fa prediabetic model at 10 mg/kg, po qd for 15 days by microarray analysis relative to control; type: functional
[34] = Drug uptake in heart of Zucker rat sub-chronic fa/fa prediabetic model at 12.5 mg/kg, po qd for 11 days; type: ADME, organism-based; conditions: read-out: Drug uptake

Chain of Sodium channel protein type 2 subunit alpha (Homo sapiens) (Q99250 whole entry, looked up): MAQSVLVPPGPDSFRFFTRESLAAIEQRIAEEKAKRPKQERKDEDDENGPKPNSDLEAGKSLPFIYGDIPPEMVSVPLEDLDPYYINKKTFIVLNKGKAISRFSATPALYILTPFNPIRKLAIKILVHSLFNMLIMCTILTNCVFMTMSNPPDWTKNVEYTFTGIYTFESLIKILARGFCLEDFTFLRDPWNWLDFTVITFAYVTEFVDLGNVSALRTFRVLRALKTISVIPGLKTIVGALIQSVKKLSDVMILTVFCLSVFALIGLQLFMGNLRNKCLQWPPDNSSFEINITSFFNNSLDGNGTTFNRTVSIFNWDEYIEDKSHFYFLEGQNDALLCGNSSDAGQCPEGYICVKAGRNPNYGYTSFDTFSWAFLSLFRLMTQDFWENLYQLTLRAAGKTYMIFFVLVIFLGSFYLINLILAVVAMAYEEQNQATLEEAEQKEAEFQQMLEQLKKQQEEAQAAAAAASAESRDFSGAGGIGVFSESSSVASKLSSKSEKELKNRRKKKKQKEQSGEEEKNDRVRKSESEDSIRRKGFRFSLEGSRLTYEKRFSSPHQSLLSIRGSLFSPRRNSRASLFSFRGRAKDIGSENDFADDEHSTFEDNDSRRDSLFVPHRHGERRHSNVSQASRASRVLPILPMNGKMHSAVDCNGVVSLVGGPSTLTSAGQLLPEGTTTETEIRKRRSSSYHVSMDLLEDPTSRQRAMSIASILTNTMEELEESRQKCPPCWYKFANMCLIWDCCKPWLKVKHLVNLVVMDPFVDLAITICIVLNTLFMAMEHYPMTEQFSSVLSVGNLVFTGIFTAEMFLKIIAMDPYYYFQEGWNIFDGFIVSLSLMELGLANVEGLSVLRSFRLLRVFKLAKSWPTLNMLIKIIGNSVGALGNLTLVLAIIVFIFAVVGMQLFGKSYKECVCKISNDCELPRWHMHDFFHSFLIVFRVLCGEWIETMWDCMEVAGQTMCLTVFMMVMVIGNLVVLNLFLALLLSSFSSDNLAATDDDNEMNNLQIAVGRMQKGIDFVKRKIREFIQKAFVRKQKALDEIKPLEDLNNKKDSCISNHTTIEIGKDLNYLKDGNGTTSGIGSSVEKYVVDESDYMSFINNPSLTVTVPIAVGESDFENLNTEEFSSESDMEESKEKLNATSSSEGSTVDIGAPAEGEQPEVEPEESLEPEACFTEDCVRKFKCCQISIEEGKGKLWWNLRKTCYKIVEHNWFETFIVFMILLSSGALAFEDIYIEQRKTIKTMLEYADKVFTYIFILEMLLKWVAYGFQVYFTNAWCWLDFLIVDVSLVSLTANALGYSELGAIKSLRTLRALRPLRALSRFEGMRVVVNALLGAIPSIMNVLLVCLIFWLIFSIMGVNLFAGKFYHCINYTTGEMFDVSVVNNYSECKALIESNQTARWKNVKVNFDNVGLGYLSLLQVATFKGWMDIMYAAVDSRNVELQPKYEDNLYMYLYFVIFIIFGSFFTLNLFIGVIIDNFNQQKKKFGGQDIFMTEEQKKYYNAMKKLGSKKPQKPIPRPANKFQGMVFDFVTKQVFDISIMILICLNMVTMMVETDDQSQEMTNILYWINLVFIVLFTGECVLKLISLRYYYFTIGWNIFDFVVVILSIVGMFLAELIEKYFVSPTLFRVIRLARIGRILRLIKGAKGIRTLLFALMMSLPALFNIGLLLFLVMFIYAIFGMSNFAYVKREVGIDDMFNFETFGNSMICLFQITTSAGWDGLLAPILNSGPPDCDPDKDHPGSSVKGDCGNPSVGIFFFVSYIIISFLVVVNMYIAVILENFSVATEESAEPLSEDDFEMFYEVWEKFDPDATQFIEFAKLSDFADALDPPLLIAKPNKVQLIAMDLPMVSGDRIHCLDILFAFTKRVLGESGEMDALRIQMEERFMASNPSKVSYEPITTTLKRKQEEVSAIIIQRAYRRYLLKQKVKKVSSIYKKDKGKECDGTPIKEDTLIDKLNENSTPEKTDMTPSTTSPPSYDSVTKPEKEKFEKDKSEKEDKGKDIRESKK
Chain of Peroxisome proliferator-activated receptor gamma (P37231 whole entry, the tested form may be a part): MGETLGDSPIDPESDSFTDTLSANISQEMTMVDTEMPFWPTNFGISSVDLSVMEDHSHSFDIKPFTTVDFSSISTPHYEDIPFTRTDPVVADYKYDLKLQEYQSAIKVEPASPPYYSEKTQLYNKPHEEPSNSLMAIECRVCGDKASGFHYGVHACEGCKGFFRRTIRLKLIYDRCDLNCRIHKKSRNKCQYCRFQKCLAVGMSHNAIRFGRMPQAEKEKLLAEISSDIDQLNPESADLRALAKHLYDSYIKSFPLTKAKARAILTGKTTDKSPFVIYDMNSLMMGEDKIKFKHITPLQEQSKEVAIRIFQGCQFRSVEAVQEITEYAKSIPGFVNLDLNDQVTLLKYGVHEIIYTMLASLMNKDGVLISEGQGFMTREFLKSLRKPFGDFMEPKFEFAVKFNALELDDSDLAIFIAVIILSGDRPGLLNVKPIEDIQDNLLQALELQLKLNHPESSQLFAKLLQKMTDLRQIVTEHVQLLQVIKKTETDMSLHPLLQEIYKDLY
Chain of Oxysterols receptor LXR-beta (P55055 whole entry, the tested form may be a part): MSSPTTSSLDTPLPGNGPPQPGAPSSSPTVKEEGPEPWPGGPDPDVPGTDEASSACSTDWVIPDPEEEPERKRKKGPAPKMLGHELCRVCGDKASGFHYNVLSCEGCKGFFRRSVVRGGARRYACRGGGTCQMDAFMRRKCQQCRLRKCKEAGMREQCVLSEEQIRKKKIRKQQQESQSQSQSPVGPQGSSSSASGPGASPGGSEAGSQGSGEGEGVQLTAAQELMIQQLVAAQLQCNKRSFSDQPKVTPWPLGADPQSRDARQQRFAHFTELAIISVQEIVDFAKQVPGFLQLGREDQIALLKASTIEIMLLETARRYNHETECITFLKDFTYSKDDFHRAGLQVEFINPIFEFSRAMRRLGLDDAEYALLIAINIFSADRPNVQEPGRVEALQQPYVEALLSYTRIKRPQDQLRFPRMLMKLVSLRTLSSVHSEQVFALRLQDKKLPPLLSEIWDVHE

CN1CC[C@@H](N2C(=O)S/C(=C\c3ccc4c(cnn4Cc4ccc(Cl)cc4C(F)(F)F)c3)C2=O)[C@H](F)C1
Activity (Rattus norvegicus [1]): 25.5 mg/dL | AUC (Rattus norvegicus [2]): 16.7 ng·h/mL | fold change (FC) (Rattus norvegicus [3]): 1.396 | half-life [4]: 6 h | Activity (Rattus norvegicus [5]): 26.3 mg/dL | AUC(0-t) at 24 h [6]: 14600 ng·h/mL | Activity (Rattus norvegicus [7]): 2.95 g | Activity (Rattus norvegicus [8]): 81 mg/dL | Activity [9]: inactive | Activity (Rattus norvegicus [10]): 27017 mg·min/dL | Activity (Rattus norvegicus [11]): 152.4 g | fold change (FC) (Rattus norvegicus [12]): 1.35 | fold change (FC) (Rattus norvegicus [13]): 1.203 | fold change (FC) (Rattus norvegicus [14]): 1.495 | Activity (Rattus norvegicus [15]): 1.11 g | Cmax [16]: 7660 ng/mL | fold change (FC) (Rattus norvegicus [17]): -1.241 | Activity (Rattus norvegicus [18]): 124.7 mg | half-life [19]: 4.7 h | EC50 [20]: > 10 µM | Activity (Rattus norvegicus [21]): 167.8 g | fold change (FC) (Rattus norvegicus [22]): -1.52 | fold change (FC) (Rattus norvegicus [23]): -1.201 | fold change (FC) (Rattus norvegicus [24]): 1.383 | Activity (Rattus norvegicus [25]): Dose-dependent effect | IC50 [26]: > 10 µM | Activity (Rattus norvegicus [27]): 160 g | Activity (Rattus norvegicus [28]): 171 mg/dL | Activity (Rattus norvegicus [29]): Dose-dependent effect | half-life [30]: 10.6 h | Activity (Rattus norvegicus [31]): 557 g | Activity (Rattus norvegicus [32]): 9.4 g | fold change (FC) (Rattus norvegicus [33]): 1.323 | concentration at 264 h [34]: 1700 ng/g
